# Data from article PMC12385147, “Discovery of Novel 2-Substituted Aniline Pyrimidine Based Derivatives as Potent Mer/c-Met Dual Inhibitors with Improvement Bioavailability” (Biomolecules, 2025).
# Where two headings read alike, the source gives them in different places.
# Legend:
# [1] = cited from earlier work
# [2] = cited from earlier work; remark: listed apart in the source
# [3] = Plasma protein binding, equilibrium dialysis, rat plasma; type: in vitro ADME; details: 1 μM
# [4] = system: MDA-MB-231; assay: Antiproliferation CCK-8 assay, MDA-MB-231; type: cell-based; details: Homo sapiens, CCK-8, 72 h
# Experimental: (§1) The HepG2, MDA-MB-231, and HCT116 cell lines were derived from our own laboratory (the laboratory of our collaborator, Dr. Xiaolei Zhou, at College of Food Science and Biology in Hebei University of Science and Technology). The antiproliferative activities were assessed using the CCK-8 assay. Cell viability was measured according to the manufacturer’s instructions for the Cell Counting Kit-8 (Meilunbio, Dalian, China). In this assay, 2.5 × 10^3 cells per well were seeded into 96-well plates.
# (§2) After an initial 12 h incubation, cancer cells were exposed to varying concentrations of compound 17c for 72 h. Following CCK-8 solution addition and 2 h incubation, the absorbance at 450 nm was measured using a BioTek Synergy HTX microplate reader. Experiments included triplicate wells with three independent replicates. The IC50 values for compound 17c were derived from an analysis of the dose–response curves in GraphPad PRISM 9.5.
# [5] = system: HCT116; assay: Antiproliferation CCK-8 assay, HCT116; type: cell-based; details: Homo sapiens, HCT-116; CCK-8, 72 h; read-out: IC50 HCT116
# Experimental: as §1, §2
# [6] = system: HepG2; assay: Antiproliferation CCK-8 assay, HepG2; type: cell-based; details: Homo sapiens, CCK-8, 72 h
# Experimental: as §1, §2
# [7] = target: T1, c-Met kinase (Homo sapiens, UniProt P08581); assay: c-Met kinase inhibition assay (TK-Sub-Biotin / cryptate detection); type: biochemical; details: for IC50: means from three independent experiments
# T1 construct: purchased Invitrogen (Shanghai, China)
# T1 sequence (P08581 25-1390): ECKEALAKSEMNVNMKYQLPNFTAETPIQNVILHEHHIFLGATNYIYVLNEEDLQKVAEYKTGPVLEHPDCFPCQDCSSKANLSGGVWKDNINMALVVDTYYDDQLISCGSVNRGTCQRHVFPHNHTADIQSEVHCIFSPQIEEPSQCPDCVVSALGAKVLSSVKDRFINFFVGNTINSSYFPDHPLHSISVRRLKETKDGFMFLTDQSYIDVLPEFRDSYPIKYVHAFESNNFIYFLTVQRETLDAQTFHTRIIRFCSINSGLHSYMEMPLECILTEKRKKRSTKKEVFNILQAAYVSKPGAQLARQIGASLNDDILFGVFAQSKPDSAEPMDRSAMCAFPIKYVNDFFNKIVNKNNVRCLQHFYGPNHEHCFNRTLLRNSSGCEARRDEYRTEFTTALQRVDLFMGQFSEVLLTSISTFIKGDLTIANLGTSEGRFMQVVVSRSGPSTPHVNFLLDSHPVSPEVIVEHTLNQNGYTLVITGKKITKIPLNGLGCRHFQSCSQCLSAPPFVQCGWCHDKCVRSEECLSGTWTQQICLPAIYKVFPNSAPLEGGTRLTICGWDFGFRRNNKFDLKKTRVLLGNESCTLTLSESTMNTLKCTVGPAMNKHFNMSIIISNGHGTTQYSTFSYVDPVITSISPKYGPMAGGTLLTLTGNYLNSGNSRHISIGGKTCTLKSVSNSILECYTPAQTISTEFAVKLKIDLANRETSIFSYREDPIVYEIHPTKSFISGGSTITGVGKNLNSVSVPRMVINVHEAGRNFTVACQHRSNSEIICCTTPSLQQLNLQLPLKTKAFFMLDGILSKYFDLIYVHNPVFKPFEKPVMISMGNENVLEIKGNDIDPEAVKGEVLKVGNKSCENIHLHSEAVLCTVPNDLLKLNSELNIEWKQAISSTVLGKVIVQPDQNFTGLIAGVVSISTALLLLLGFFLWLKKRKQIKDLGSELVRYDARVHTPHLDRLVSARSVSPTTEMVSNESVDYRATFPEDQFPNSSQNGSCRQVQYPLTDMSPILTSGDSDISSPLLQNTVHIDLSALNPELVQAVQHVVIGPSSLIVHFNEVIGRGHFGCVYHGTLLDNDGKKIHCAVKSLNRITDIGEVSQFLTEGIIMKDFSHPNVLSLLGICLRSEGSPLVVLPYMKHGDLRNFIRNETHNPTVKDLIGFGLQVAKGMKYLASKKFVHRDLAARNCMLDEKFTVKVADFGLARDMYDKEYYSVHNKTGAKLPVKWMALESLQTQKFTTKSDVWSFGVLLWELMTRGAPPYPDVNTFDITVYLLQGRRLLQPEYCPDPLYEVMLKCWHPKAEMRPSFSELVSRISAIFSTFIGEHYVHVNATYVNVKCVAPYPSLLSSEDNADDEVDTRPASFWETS
# [8] = target: T2, Mer kinase (Homo sapiens, UniProt Q12866); assay: Mer kinase inhibition assay (TK-Sub-Biotin / cryptate detection); type: biochemical; details: for IC50: means from three independent experiments
# T2 construct: purchased Invitrogen (Shanghai, China)
# T2 sequence (Q12866 21-999): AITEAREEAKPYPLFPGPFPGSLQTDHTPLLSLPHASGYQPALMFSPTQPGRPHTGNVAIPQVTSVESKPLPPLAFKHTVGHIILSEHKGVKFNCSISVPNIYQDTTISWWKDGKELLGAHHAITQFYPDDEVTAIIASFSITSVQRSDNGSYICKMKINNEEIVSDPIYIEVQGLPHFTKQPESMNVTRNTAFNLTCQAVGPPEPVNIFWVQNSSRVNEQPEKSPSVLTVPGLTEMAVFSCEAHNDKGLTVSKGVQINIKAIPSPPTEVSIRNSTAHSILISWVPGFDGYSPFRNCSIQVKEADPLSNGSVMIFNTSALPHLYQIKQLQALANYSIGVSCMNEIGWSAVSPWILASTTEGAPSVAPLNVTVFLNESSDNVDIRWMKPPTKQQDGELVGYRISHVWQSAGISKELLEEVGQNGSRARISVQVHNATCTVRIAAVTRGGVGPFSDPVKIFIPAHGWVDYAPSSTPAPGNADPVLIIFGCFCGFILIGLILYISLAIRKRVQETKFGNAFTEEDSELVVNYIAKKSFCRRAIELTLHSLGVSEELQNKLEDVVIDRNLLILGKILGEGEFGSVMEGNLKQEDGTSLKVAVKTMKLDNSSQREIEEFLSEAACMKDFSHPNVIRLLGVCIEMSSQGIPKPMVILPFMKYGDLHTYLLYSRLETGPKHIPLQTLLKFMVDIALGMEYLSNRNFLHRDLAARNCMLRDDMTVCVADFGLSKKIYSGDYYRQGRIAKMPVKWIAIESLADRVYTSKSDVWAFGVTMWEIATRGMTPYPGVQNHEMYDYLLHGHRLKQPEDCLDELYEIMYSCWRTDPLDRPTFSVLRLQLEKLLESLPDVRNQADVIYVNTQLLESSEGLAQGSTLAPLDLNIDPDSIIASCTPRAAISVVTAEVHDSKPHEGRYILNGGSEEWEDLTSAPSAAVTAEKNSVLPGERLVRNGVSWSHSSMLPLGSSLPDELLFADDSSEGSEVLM
# [9] = Liver microsome stability assay; type: in vitro ADME, human; details: human, liver microsomes, pH 7.4, human liver microsomes; for microsomal CLint: read-out: CL (intrinsic clearance)
Structure (SMILES),IC50 [7],IC50 [8],other results
CN1CCN(Cc2ccc(-c3cn([C@H]4CC[C@H](O)CC4)c4nc(NCCC5CC5)ncc34)cc2)CC1 [MRX2843],,,brain/plasma ration ([1]; CNS penetration): 0.4
CCCCNc1ncc2c(-c3ccc(F)cc3)nn(CC3CCC(N)CC3)c2n1 (centres unmarked) [UNC569],,,human microsomal t1/2 [2]: < 15 min; oral bioavailability F [1]: < 10%
"CC(=O)CC(c1ccccc1)c1c(O)c2ccccc2oc1=O (centres unmarked) [Warfarin, reference compound]",,,Mean Fb [3]: 99.0%
"COc1cc2nccc(Oc3ccc(NC(=O)C4(C(=O)Nc5ccc(F)cc5)CC4)cc3)c2cc1OC [cabozantinib, reference compound]",,,IC50 [4]: 4620 ± 540 nM; IC50 [5]: 15600 ± 4390 nM; IC50 [6]: 7870 ± 2110 nM
"CN1CCC(Oc2ccc(Nc3nccc(Oc4ccc(NC(=O)C5(C(=O)Nc6ccc(F)cc6)CC5)cc4)n3)cc2)CC1 [compound 13a, N-(4-fluorophenyl)-N-(4-((2-((4-((1-methylpiperidin-4-yl)oxy)phenyl)amino)pyrimidin-4-yl)oxy)phenyl)cyclopropane-1,1-dicarboxamide]",63.3 ± 9.1 nM,21.7 ± 5.8 nM,
COCCNc1cccc(Nc2nccc(Oc3ccc(NC(=O)C4(C(=O)Nc5ccc(F)cc5)CC4)cc3)n2)c1 [compound 13b],25.9 ± 7.7 nM,24.3 ± 5.7 nM,half-life [9]: 38.3 min; microsomal CLint [9]: 90.5 µL/min/mg
"O=C(Nc1ccc(F)cc1)C1(C(=O)Nc2ccc(Oc3ccnc(Nc4cn[nH]c4)n3)cc2)CC1 [compound 13c, N-(4-((2-((1H-pyrazol-4-yl)amino)pyrimidin-4-yl)oxy)phenyl)-N-(4-fluorophenyl)cyclopropane-1,1-dicarboxamide]",48.9 ± 6.4 nM,110 ± 15.7 nM,
"O=C(Nc1ccc(F)cc1)C1(C(=O)Nc2ccc(Oc3ccnc(Nc4cc(F)cc(F)c4)n3)cc2)CC1 [compound 13d, N-(4-((2-((3,5-difluorophenyl)amino)pyrimidin-4-yl)oxy)phenyl)-N-(4-fluorophenyl)cyclopropane-1,1-dicarboxamide]",728 ± 131 nM,640 ± 82.2 nM,
CC(=O)N1CCN(c2cccc(Nc3nccc(Oc4ccc(NC(=O)C5(C(=O)Nc6ccc(F)cc6)CC5)cc4)n3)c2)CC1 [compound 13e],7.5 ± 1.1 nM,7.5 ± 1.6 nM,"half-life [9]: 30.4 min; microsomal CLint [9]: 114 µL/min/mg; fold improvement over 18c, c-Met IC50 [7]: 4.5 fold; fold improvement over 18c, Mer IC50 [8]: 2.5 fold"
"O=C(NC1CCCNC1)c1cccc(Nc2nccc(Oc3ccc(NC(=O)C4(C(=O)Nc5ccc(F)cc5)CC4)cc3)n2)c1 (centres unmarked) [compound 13f, N-(4-fluorophenyl)-N-(4-((2-((3-(piperidin-3-ylcarbamoyl)phenyl)amino)pyrimidin-4-yl)oxy)phenyl)cyclopropane-1,1-dicarboxamide]",> 1000 nM,> 1000 nM,
"O=C(NC1CCCNC1)c1ccc(Nc2nccc(Oc3ccc(NC(=O)C4(C(=O)Nc5ccc(F)cc5)CC4)cc3)n2)cc1 (centres unmarked) [compound 13g, N-(4-fluorophenyl)-N-(4-((2-((4-(piperidin-3-ylcarbamoyl)phenyl)amino)pyrimidin-4-yl)oxy)phenyl)cyclopropane-1,1-dicarboxamide]",> 1000 nM,> 1000 nM,
"CN1CCN(C(=O)c2ccc(Nc3nccc(Oc4ccc(NC(=O)C5(C(=O)Nc6ccc(F)cc6)CC5)cc4)n3)cc2)CC1 [compound 13h, N-(4-fluorophenyl)-N-(4-((2-((4-(4-methylpiperazine-1-carbonyl)phenyl)amino)pyrimidin-4-yl)oxy)phenyl)cyclopropane-1,1-dicarboxamide]",41.6 ± 8.5 nM,72 ± 8.9 nM,
"CCN(CC)CCNCC(=O)Nc1ccc(Nc2nccc(Oc3ccc(NC(=O)C4(C(=O)Nc5ccc(F)cc5)CC4)cc3)n2)cc1 [compound 13i, N-(4-((2-((4-(2-((2-(diethylamino)ethyl)amino)acetamido)phenyl)amino)pyrimidin-4-yl)oxy)phenyl)-N-(4-fluorophenyl)cyclopropane-1,1-dicarboxamide]",88.6 ± 13.9 nM,95.3 ± 20.1 nM,
CN(C)CCNCC(=O)Nc1ccc(Nc2nccc(Oc3ccc(NC(=O)C4(C(=O)Nc5ccc(F)cc5)CC4)cc3)n2)cc1 [compound 13j],48.6 ± 11.2 nM,13.1 ± 2.1 nM,half-life [9]: 27.9 min; microsomal CLint [9]: 152 µL/min/mg
COCCN1CCN(CC(=O)Nc2ccc(Nc3nccc(Oc4ccc(NC(=O)C5(C(=O)Nc6ccc(F)cc6)CC5)cc4)n3)cc2)CC1 [compound 13k],35.4 ± 10 nM,37.3 ± 10.6 nM,half-life [9]: 38.4 min; microsomal CLint [9]: 124 µL/min/mg
CN1CCN(CC(=O)Nc2ccc(Nc3nccc(Oc4ccc(NC(=O)C5(C(=O)Nc6ccc(F)cc6)CC5)cc4)n3)cc2)CC1 [compound 18c],,,oral bioavailability F ([1]; previous study): 2.84%

# Further lines, with some results ahead:
IC50 [7],IC50 [8],Structure (SMILES),other results
233 ± 25.4 nM,26.2 ± 7.1 nM,"Cc1c(C(=O)Nc2ccc(Oc3ccnc(Nc4ccc(OC5CCN(C)CC5)cc4)n3)cc2)c(=O)n(-c2ccccc2)n1C [compound 17a, 1,5-dimethyl-N-(4-((2-((4-((1-methylpiperidin-4-yl)oxy)phenyl)amino)pyrimidin-4-yl)oxy)phenyl)-3-oxo-2-phenyl-2,3-dihydro-1H-pyrazole-4-carboxamide]",
101 ± 18.5 nM,12.1 ± 1.3 nM,"COCCNc1cccc(Nc2nccc(Oc3ccc(NC(=O)c4c(C)n(C)n(-c5ccccc5)c4=O)cc3)n2)c1 [compound 17b, N-(4-((2-((3-((2-methoxyethyl)amino)phenyl)amino)pyrimidin-4-yl)oxy)phenyl)-1,5-dimethyl-3-oxo-2-phenyl-2,3-dihydro-1H-pyrazole-4-carboxamide]",
137 ± 34.3 nM,84.1 ± 13.9 nM,"Cc1c(C(=O)Nc2ccc(Oc3ccnc(Nc4ccc(C(=O)N5CCN(C)CC5)cc4)n3)cc2)c(=O)n(-c2ccccc2)n1C [compound 17d, 1,5-dimethyl-N-(4-((2-((4-(4-methylpiperazine-1-carbonyl)phenyl)amino)pyrimidin-4-yl)oxy)phenyl)-3-oxo-2-phenyl-2,3-dihydro-1H-pyrazole-4-carboxamide]",
236 ± 25.6 nM,69.8 ± 12.5 nM,"CC(=O)N1CCN(c2ccc(Nc3nccc(Oc4ccc(NC(=O)c5c(C)n(C)n(-c6ccccc6)c5=O)cc4)n3)cc2)CC1 [compound 17e, N-(4-((2-((4-(4-acetylpiperazin-1-yl)phenyl)amino)pyrimidin-4-yl)oxy)phenyl)-1,5-dimethyl-3-oxo-2-phenyl-2,3-dihydro-1H-pyrazole-4-carboxamide]",
25 ± 3.5 nM,5.5 ± 0.8 nM,"CC(=O)N1CCN(c2cccc(Nc3nccc(Oc4ccc(NC(=O)c5c(C)n(C)n(-c6ccccc6)c5=O)cc4)n3)c2)CC1 [compound 17f, N-(4-((2-((3-(4-acetylpiperazin-1-yl)phenyl)amino)pyrimidin-4-yl)oxy)phenyl)-1,5-dimethyl-3-oxo-2-phenyl-2,3-dihydro-1H-pyrazole-4-carboxamide]",half-life [9]: 51 min; microsomal CLint [9]: 68 µL/min/mg
140 ± 18.9 nM,> 1000 nM,"Cc1c(C(=O)Nc2ccc(Oc3ccnc(Nc4ccc(NC(=O)CN5CCN(C)CC5)nc4)n3)cc2)c(=O)n(-c2ccccc2)n1C [compound 17g, 1,5-dimethyl-N-(4-((2-((6-(2-(4-methylpiperazin-1-yl)acetamido)pyridin-3-yl)amino)pyrimidin-4-yl)oxy)phenyl)-3-oxo-2-phenyl-2,3-dihydro-1H-pyrazole-4-carboxamide]",
45 ± 6.8 nM,11.9 ± 1.7 nM,"Cc1c(C(=O)Nc2ccc(Oc3ccnc(Nc4ccc(NC(=O)C(C)N5CCN(C)CC5)cc4)n3)cc2)c(=O)n(-c2ccccc2)n1C (centres unmarked) [compound 17h, 1,5-dimethyl-N-(4-((2-((4-(2-(4-methylpiperazin-1-yl)propanamido)phenyl)amino)pyrimidin-4-yl)oxy)phenyl)-3-oxo-2-phenyl-2,3-dihydro-1H-pyrazole-4-carboxamide]",
